According to US20100286181A1, “PYRROLE DERIVATIVES WITH ANTIBACTERIAL ACTIVITY” (ASTRAZENECA AB, priority 2006, published 2010):

Target: GyrB ATPase activity (E. coli GyrA, E. coli GyrB) (Escherichia coli, UniProt P0AES6)
Assay: GyrB ATPase inhibition activity assay (ammonium molybdate/malachite green phosphate detection)
Format: biochemical
Settings: figure quoted may be an average of two or more results
Experimental: Compounds may be tested for inhibition of GyrB ATPase activity using an ammonium molybdate/malachite green-based phosphate detection assay (Lanzetta, P. A., L. J. Alvarez, P. S. Reinach, and O. A. Candia, 1979, 100: 95-97). Assays can be performed in multiwell plates in 100 μl reactions containing: 50 mM HEPES buffer pH 7.5, 75 mM ammonium acetate, 5.5 mM magnesium chloride, 0.5 mM ethylenediaminetetraacetic acid, 5% glycerol, 1 mM 1,4-Dithio-DL-threitol, 200 nM bovine serum albumin, 5 μg/ml sheared salmon sperm DNA, 2.5 nM E. coli GyrA, 2.5 nM E. coli GyrB, 250 μM ATP, and compound in dimethylsulfoxide. Reactions can be quenched with 150 μl of ammonium molybdate/malachite green detection reagent containing 1.2 mM malachite green hydrochloride, 8.5 mM ammonium molybdate tetrahydrate, and 1 M hydrochloric acid.
Compounds of the Examples could be expected to have IC50 values of <200 μg/ml in one or both assays described herein above. For Example the following results were obtained in a GyrB ATPase inhibition activity assay substantially similar to the above wherein the figure quoted may be an average of two or more results

Row | SMILES | IC50 [nM]
1 | CCOC(=O)c1sc(N2CCC(NC(=O)c3[nH]c(C)c(Cl)c3Cl)C3(C2)OCCCO3)nc1C(=O)NCCOC (stereo not shown) [Example 7, Ethyl 2-(11-{[(3,4-dichloro-5-methyl-1H-pyrrol-2-yl)carbonyl]amino}-1,5-dioxa-8-azaspiro[5.5]undec-8-yl)-4-{[(2-methoxyethyl)amino]carbonyl}-1,3-thiazole-5-carboxylate] | 18.5
2 | CNC(=O)c1nc(N2CCC(NC(=O)c3[nH]c(C)c(Cl)c3Cl)C3(C2)OCCCO3)sc1C(=O)OC(C)C (stereo not shown) [Example 8, Isopropyl 2-(11-{[(3,4-dichloro-5-methyl-1H-pyrrol-2-yl)carbonyl]amino}-1,5-dioxa-8-azaspiro[5.5]undec-8-yl)-4-[(methylamino)carbonyl]-1,3-thiazole-5-carboxylate] | 73.6
3 | COC(=O)c1sc(N2CCC(NC(=O)c3[nH]c(C)c(Cl)c3Cl)C3(C2)OCCCO3)nc1C(C)=O (stereo not shown) [Example 9, Methyl 4-acetyl-2-(11-{[(3,4-dichloro-5-methyl-1H-pyrrol-2-yl)carbonyl]amino}-1,5-dioxa-8-azaspiro[5.5]undec-8-yl)-1,3-thiazole-5-carboxylate] | 52.2
4 | COC(=O)c1cnc(N2CCC(NC(=O)c3[nH]c(C)c(Cl)c3Cl)C(OC)(OC)C2)s1 (stereo not shown) [Example 10, Methyl 2-(4-{[(3,4-dichloro-5-methyl-1H-pyrrol-2-yl)carbonyl]amino}-3,3-dimethoxypiperidin-1-yl)-1,3-thiazole-5-carboxylate] | 169
5 | Cc1[nH]c(C(=O)NC2CCN(c3ncc(C(=O)O)s3)CC23OCCO3)c(Cl)c1Cl (stereo not shown) [Example 11, 2-(10-{[(3,4-Dichloro-5-methyl-1H-pyrrol-2-yl)carbonyl]amino}-1,4-dioxa-7-azaspiro[4.5]dec-7-yl)-1,3-thiazole-5-carboxylic acid] | 17.8
6 | CC(=O)c1nc(N2CCC(NC(=O)c3[nH]c(C)c(Cl)c3Cl)C3(C2)OCCO3)sc1C(=O)O (stereo not shown) [Example 12, 4-Acetyl-2-(10-{[(3,4-dichloro-5-methyl-1H-pyrrol-2-yl)carbonyl]amino}-1,4-dioxa-7-azaspiro[4.5]dec-7-yl)-1,3-thiazole-5-carboxylic acid] | < 83.1
7 | CNC(=O)c1nc(N2CCC(NC(=O)c3[nH]c(C)c(Cl)c3Cl)C3(C2)OCCO3)sc1C(=O)O (stereo not shown) [Example 13, 2-(10-{[(3,4-Dichloro-5-methyl-1H-pyrrol-2-yl)carbonyl]amino}-1,4-dioxa-7-azaspiro[4.5]dec-7-yl)-4-[(methylamino)carbonyl]-1,3-thiazole-5-carboxylic acid] | < 69
8 | COCCNC(=O)c1nc(N2CCC(NC(=O)c3[nH]c(C)c(Cl)c3Cl)C3(C2)OCCO3)sc1C(=O)O (stereo not shown) [Example 14, 2-(10-{[(3,4-Dichloro-5-methyl-1H-pyrrol-2-yl)carbonyl]amino}-1,4-dioxa-7-azaspiro[4.5]dec-7-yl)-4-{[(2-methoxyethyl)amino]carbonyl}-1,3-thiazole-5-carboxylic acid] | < 9.77
9 | COCCNC(=O)c1nc(N2CCC(NC(=O)c3[nH]c(C)c(Cl)c3Cl)C3(C2)OCCCO3)sc1C(=O)O (stereo not shown) [Example 17, 2-(11-{[(3,4-Dichloro-5-methyl-1H-pyrrol-2-yl)carbonyl]amino}-1,5-dioxa-8-azaspiro[5.5]undec-8-yl)-4-{[(2-methoxyethyl)amino]carbonyl}-1,3-thiazole-5-carboxylic acid] | < 9.77
10 | CC(=O)c1nc(N2CCC(NC(=O)c3[nH]c(C)c(Cl)c3Cl)C3(C2)OCCCO3)sc1C(=O)O (stereo not shown) [Example 19, 4-Acetyl-2-(11-{[(3,4-dichloro-5-methyl-1H-pyrrol-2-yl)carbonyl]amino}-1,5-dioxa-8-azaspiro[5.5]undec-8-yl)-1,3-thiazole-5-carboxylic acid] | < 9.77
11 | COCCNC(=O)c1nc(N2CCC(NC(=O)c3[nH]c(C)c(Cl)c3Cl)/C(=N/OC)C2)sc1C(=O)O (stereo not shown) [Example 23, 2-[(3E)-4-{[(3,4-Dichloro-5-methyl-1H-pyrrol-2-yl)carbonyl]amino}-3-(methoxyimino)piperidin-1-yl]-4-{[(2-methoxyethyl)amino]carbonyl}-1,3-thiazole-5-carboxylic acid] | < 9.77
12 | CO/N=C1\CN(c2nc(-c3ncnn3C)c(C(=O)O)s2)CCC1NC(=O)c1[nH]c(C)c(Cl)c1Cl (stereo not shown) [Example 25, 2-[(3E)-4-{[(3,4-Dichloro-5-methyl-1H-pyrrol-2-yl)carbonyl]amino}-3-(methoxyimino)piperidin-1-yl]-4-(1-methyl-1H-1,2,4-triazol-5-yl)-1,3-thiazole-5-carboxylic acid] | < 9.77
13 | CNC(=O)c1nc(N2CCC(NC(=O)c3[nH]c(C)c(Cl)c3Cl)/C(=N/OC)C2)sc1C(=O)O (stereo not shown) [Example 26, 2-[(3E)-4-{[(3,4-Dichloro-5-methyl-1H-pyrrol-2-yl)carbonyl]amino}-3-(methoxyimino)piperidin-1-yl]-4-[(methylamino)carbonyl]-1,3-thiazole-5-carboxylic acid] | < 9.77
14 | COCCn1ccnc1-c1nc(N2CCC(NC(=O)c3[nH]c(C)c(Cl)c3Cl)/C(=N/OC)C2)sc1C(=O)O (stereo not shown) [Example 27, 2-[(3E)-4-{[(3,4-Dichloro-5-methyl-1H-pyrrol-2-yl)carbonyl]amino}-3-(methoxyimino)piperidin-1-yl]-4-[1-(2-methoxyethyl)-1H-imidazol-2-yl]-1,3-thiazole-5-carboxylic acid] | < 63.5
15 | COCn1ccnc1-c1nc(N2CCC(NC(=O)c3[nH]c(C)c(Cl)c3Cl)/C(=N/OC)C2)sc1C(=O)O (stereo not shown) [Example 28, 2-[(3E)-4-{[(3,4-Dichloro-5-methyl-1H-pyrrol-2-yl)carbonyl]amino}-3-(methoxyimino)piperidin-1-yl]-4-[1-(methoxymethyl)-1H-imidazol-2-yl]-1,3-thiazole-5-carboxylic acid] | < 9.77
16 | CO/N=C1\CN(c2nc(-c3ncc[nH]3)c(C(=O)O)s2)CCC1NC(=O)c1[nH]c(C)c(Cl)c1Cl (stereo not shown) [Example 29, 2-[(3E)-4-{[(3,4-Dichloro-5-methyl-1H-pyrrol-2-yl)carbonyl]amino}-3-(methoxyimino)piperidin-1-yl]-4-(1H-imidazol-2-yl)-1,3-thiazole-5-carboxylic acid] | < 9.77
17 | C=CCOC(=O)c1sc(N2CCC(NC(=O)c3[nH]c(C)c(Cl)c3Cl)/C(=N/OC)C2)nc1C(=O)NCCOC (stereo not shown) [Example 30, Allyl 2-[(3E)-4-{[(3,4-dichloro-5-methyl-1H-pyrrol-2-yl)carbonyl]amino}-3-(methoxyimino)piperidin-1-yl]-4-{[(2-methoxyethyl)amino]carbonyl}-1,3-thiazole-5-carboxylate] | 86.1
18 | CNC(=O)c1nc(N2CCC(NC(=O)c3[nH]c(C)c(Cl)c3Cl)/C(=N/OC)C2)sc1C(=O)OC (stereo not shown) [Example 31, Methyl 2-[(3E)-4-{[(3,4-dichloro-5-methyl-1H-pyrrol-2-yl)carbonyl]amino}-3-(methoxyimino)piperidin-1-yl]-4-[(methylamino)carbonyl]-1,3-thiazole-5-carboxylate] | 49.4
19 | CO/N=C1\CN(c2ncc(C=O)s2)CCC1NC(=O)c1[nH]c(C)c(Cl)c1Cl (stereo not shown) [Example 32, 3,4-Dichloro-N-[(3E)-1-(5-formyl-1,3-thiazol-2-yl)-3-(methoxyimino)piperidin-4-yl]-5-methyl-1H-pyrrole-2-carboxamide] | 59.3
20 | CCOC(=O)c1sc(N2CCC(NC(=O)c3[nH]c(C)c(Cl)c3Cl)/C(=N/OC)C2)nc1C(=O)NCCOC (stereo not shown) [Example 33, Ethyl 2-[(3E)-4-{[(3,4-dichloro-5-methyl-1H-pyrrol-2-yl)carbonyl]amino}-3-(methoxyimino)piperidin-1-yl]-4-{[(2-methoxyethyl)amino]carbonyl}-1,3-thiazole-5-carboxylate] | 36.9
21 | CO/N=C1\CN(c2nc(-c3ncnn3C)c(C(=O)OC)s2)CCC1NC(=O)c1[nH]c(C)c(Cl)c1Cl (stereo not shown) [Example 34, Methyl 2-[(3E)-4-{[(3,4-dichloro-5-methyl-1H-pyrrol-2-yl)carbonyl]amino}-3-(methoxyimino)piperidin-1-yl]-4-(1-methyl-1H-1,2,4-triazol-5-yl)-1,3-thiazole-5-carboxylate] | 66.8
22 | COCCn1ccnc1-c1nc(N2CCC(NC(=O)c3[nH]c(C)c(Cl)c3Cl)/C(=N/OC)C2)sc1C(=O)OC (stereo not shown) [Example 36, Methyl 2-[(3E)-4-{[(3,4-dichloro-5-methyl-1H-pyrrol-2-yl)carbonyl]amino}-3-(methoxyimino)piperidin-1-yl]-4-[1-(2-methoxyethyl)-1H-imidazol-2-yl]-1,3-thiazole-5-carboxylate] | 75.5
23 | COC1COC2(CN(c3ncc(C(=O)O)s3)CCC2NC(=O)c2[nH]c(C)c(Cl)c2Cl)OC1 [Example 52, 2-((rel-3R,6r,11R)-11-{[(3,4-Dichloro-5-methyl-1H-pyrrol-2-yl)carbonyl]amino}-3-methoxy-1,5-dioxa-8-azaspiro[5.5]undec-8-yl)-1,3-thiazole-5-carboxylic acid] | < 9.77
24 | COC1COC2(CN(c3ncc(C(=O)O)s3)CCC2NC(=O)c2[nH]c(C)c(Cl)c2Cl)OC1 [Example 53, 2-((rel-3S,6s,11R)-11-{[(3,4-Dichloro-5-methyl-1H-pyrrol-2-yl)carbonyl]amino}-3-methoxy-1,5-dioxa-8-azaspiro[5.5]undec-8-yl)-1,3-thiazole-5-carboxylic acid] | < 9.77
25 | Cc1[nH]c(C(=O)NC2CCN(c3ncc(C(=O)O)s3)CC23OCC2(CC2)CO3)c(Cl)c1Cl (stereo not shown) [Example 55, 2-(11-{[(3,4-Dichloro-5-methyl-1H-pyrrol-2-yl)carbonyl]amino}-5,12-dioxa-8-azadispiro[2.2.5.2]tridec-8-yl)-1,3-thiazole-5-carboxylic acid] | < 9.77
